Laboratory results reported in US20230293677A1 (priority 2020, published 2023).
Read-outs that look alike come from different tables or passages of the source.

How the values were obtained:
smallpox antigens = test system: smallpox antigens; design: species or system white outbred male mice; details: mouse, in vivo
[1] = test system: Cowpox virus (CP), Pumenok strain; design: species or system outbred male mice; details: mouse, in vivo
[2] = test system: Herpes simplex virus (HSV) of type 1, US strain; assay: Herpetic infection model in irradiated mice, survival after immunization; format: in vivo, outbred mice; details: for Number of dead animals, % / Number of survived animals, %: 2.5 LD50 s.c.
[3] = test system: antigens of the VVE virus; design: species or system white outbred male mice; details: mouse, in vivo
[4] = test system: botulinum toxin of type A; design: species or system guinea pigs; details: guinea pig, in vivo
[5] = test system: virus of Venezuelan equine encephalomyelitis, strain Trinidad; design: species or system outbred male mice; details: mouse, in vivo
[6] = test system: botulinum toxin of type A; design: species or system white mice; details: mouse, in vivo
[7] = adjuvant 150 μg/individual i.m. 3, 2, 1 days before

In the case of Nc1cccc2c([O-])nnc([O-])c12.[Na+].[Na+] [Abidov's adjuvant, sodium salt of 5-amino-1,2,3,4-tetrahydrophthalazine-1,4-dione], the “increase in the titer of specific anti-smallpox antibodies compared with animals vaccinated with only SLDV” value (smallpox antigens) is reported as 4 times, the “adjuvant effect in relation to SLDV” value [1] is reported as “not possible to identify a pronounced adjuvant effect” and the “effect on the formation of specific orthopoxvirus immunity” value [1] is reported as “no negative effect”. The “Number of dead animals, %” value [2, 7] was 70%, the “Number of survived animals, %” value [2, 7] was 30% and the “Number of dead animals, %” value ([2]; only adjuvant, single dose) was 80%. The “Number of survived animals, %” value ([2]; only adjuvant, single dose) was 20%, the “increase of the effectiveness of IMP” value ([2]; adjuvant used in immunization schemes with herpetic vaccine) was 30% and the “increase in the level of positive seroconversions compared with animals vaccinated only with VVE” value [3] was 30%. For the same molecule, the “Survival rate, M (M − tm − M + tm), %” value [4] was 0%, the “survival rate of infected mice” value [5] was 60-100% and the “Survival rate, M (M − tm − M + tm), %” value [6] was 0%.
